# Structures can show the parent of a compound that is named as a salt.
# Legend:
# [1] = system: DSS induced colitis in Balb/c mice; test: Dextran sulfate sodium (DSS) induced inflammatory bowel disease in mice; assay type: in vivo; design: key to Blood in the Stool score LS means ± SE: 0 = normal, 2 = Hemoccult+, 4 = gross bleeding; key to Disease Activity Index LS means ± SE: sum of stool, blood and weight-loss scores (each 0-4), max 12
# Description: The experiment was performed using 6- to 8-week old female Balb/c mice after a one-week acclimatization period. The mice weighed 18-25 g, were purchased from Taconic (Denmark) and were maintained in a temperature and light-controlled facility with free access to standard rodent chow and water. Mice were randomized to the respective groups five days before start of treatment and were kept 5 to 6 animals […] per cage. […] The DSS intake was assessed daily. SASP (from Sigma-Aldrich, Sweden) was first dissolved in 0.2 M sodium hydroxide (NaOH) at a concentration higher than the required final concentration. Phosphate buffered saline (PBS) was added to the desired concentration and the pH was adjusted to 7.5-8.0 with NaOH or hydrochloric acid. SASP remained completely dissolved at this pH. Cpd A was dissolved in PBS to the desired concentration. All animal groups had free access to 5% DSS water solution for the entire test period. Treatments were administered from day 0 to day 5, either orally by gavage (SASP) or intraperitoneally (Cpd A), and in an administration volume of 5 ml/kg, twice daily with approximately an 8-hour interval. The control group (DSS only) received water (0.2 ml) orally twice daily.
# The parameters recorded in the experiment were stool consistency (0, normal; 2, loose stools; 4, watery diarrhoea), occurrence of blood in the stool (0, normal; 2, Hemoccult+; 4, gross bleeding), and body weight loss (0, none; 1, 1-5%; 2, 5-10%; 3, 10-20%; 4, >20%). Disease activity index (DAI) was calculated by summarizing the scores of these three parameters. Also the colon length and the colonic content of myeloperoxidase (MPO) were recorded. Data was statistically evaluated with analysis of variance (ANOVA). Least-squares means (LS means), and standard error (SE) of LS means were calculated.
# [2] = target: dopamine D2 receptor (Rattus norvegicus, UniProt P61169); assay type: binding; details: in vitro; 125I-spiperone
# Chain of dopamine D2 receptor (P61169 whole entry, looked up): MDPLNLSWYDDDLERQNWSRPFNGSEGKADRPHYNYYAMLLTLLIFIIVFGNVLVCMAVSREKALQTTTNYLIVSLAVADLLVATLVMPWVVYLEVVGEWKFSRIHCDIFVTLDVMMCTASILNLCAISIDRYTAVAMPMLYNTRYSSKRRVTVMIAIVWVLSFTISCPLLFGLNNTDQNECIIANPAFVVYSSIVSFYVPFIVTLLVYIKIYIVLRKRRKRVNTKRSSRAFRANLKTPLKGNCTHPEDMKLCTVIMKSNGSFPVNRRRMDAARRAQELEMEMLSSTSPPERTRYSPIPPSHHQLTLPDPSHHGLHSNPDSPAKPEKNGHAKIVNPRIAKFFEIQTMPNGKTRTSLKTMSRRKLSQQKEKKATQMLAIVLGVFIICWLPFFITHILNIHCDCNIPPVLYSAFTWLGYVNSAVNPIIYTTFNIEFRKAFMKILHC
# [3] = system: LPS-induced TNF-production in RAW264.7 murine macrophage cells; test: Suppression of LPS-induced TNF-α production in macrophages (ELISA); assay type: cell-based; details: Mus musculus, RAW264.7, read-out: % Inhibition of TNF-production
# Description: The RAW264.7 macrophage line was maintained in DMEM supplemented with 5% FBS at 37° C. in a 5% CO2-humidified air environment. The RAW264.7 cells were seeded in 96-well plates at a density of 1×10^5/ml and a volume of 200 μl/well. The cells were incubated for 24 h in medium supplemented with 10% FBS and were then pre-incubated with or without the indicated concentrations of test substances for 2 h prior to the addition of LPS (1 μg/ml). The supernatants were subsequently harvested at various time points and production of the proinflammatory cytokine TNF-α in the culture medium was determined using a commercially available enzyme-linked immunosorbent assay (ELISA) kit according to the manufacturer's protocol.
# Effects of some AABZs of the invention at 1 mM on LPS-induced TNF-production in RAW264.7 murine macrophage cells are shown in Table 2.
# [4] = system: collagen-induced arthritis in DBA/1 mice; test: Collagen-induced arthritis; assay type: in vivo; details: 200 mg/kg/day in drinking water from day 14 to day 49
# Description: The experiment was performed using 9-week old male DBA/1 mice after a two-week acclimatization period. The mice were purchased from B&M (Denmark), and were maintained in a temperature and light-controlled facility with free access to standard rodent chow and water. Following the acclimatization period, the mice (10 per treatment group) were anesthesized with Enflurane and immunized intradermally in the base of the tail with […] of a 1:1 emulsion consisting of Freund's Complete Adjuvant H37Ra (Difco) and 2 mg/mL bovine type II collagen (Elastin Products, Owensville, MO) in 0.1 M acetic acid. On day 14 post-immunization, the mice were given ad lib access to drinking water containing Cpd A, with treatment continuing daily until termination of the experiment (day 49). The Cpd A intake was monitored by weighing the drinking bottles at the water renewal twice per week. The control group received water ad lib.
# The mice were monitored for clinical signs of arthritis three times a week from immunization to day 49. […] The four measurements were summed for each mouse, and group averages were calculated. Mice with a score >12 were sacrificed. In the scoring protocol, the last observation carried forward (LOCF) method was used.
# Mean onset day was defined as the mean day of onset in mice being affected. […]
# Statistical significance was determined using Mann-Whitney Rank Sum test. […]
smiles,measurement,setting,value
"O=C(O)c1cc(/N=N/c2ccc(S(=O)(=O)Nc3ccccn3)cc2)ccc1O [SASP, sulfasalazine, reference compound]",frequency of diarrhoea (stool consistency score of 2 and 4),"[1]; day 3, 40 mg/kg/day bid po",8%
same,Blood in the Stool Percent Reduction of Score vs control,"[1]; day 5, 40 mg/kg/day bid po",42%
same,Blood in the Stool score LS means ± SE,"[1]; day 5, 40 mg/kg/day bid po",1.4±0.2
same,Disease Activity Index LS means ± SE,"[1]; day 5, 40 mg/kg/day bid po",4.4 ± 0.4
same,Disease Activity Index Percent Reduction of Score vs control,"[1]; day 5, 40 mg/kg/day bid po",36%
same,frequency of diarrhoea (stool consistency score of 2 and 4),"[1]; day 5, 40 mg/kg/day bid po",71%
"CCN(CC)CCNC(=O)c1ccc(NC(C)=O)c(Cl)c1 [Cpd A, 4-Acetamido-3-chloro-N-[2-(diethylamino)ethyl]benzamide hydrochloride]",Disease Activity Index score reduction by Cpd A versus SASP treatment,"[1]; Cpd A 100 mg/kg/day bid ip vs SASP 40 mg/kg/day bid po, p<0.016",60%
same,Blood in the Stool Percent Reduction of Score vs control,"[1]; day 5, 50 mg/kg/day bid ip",9%
same,Blood in the Stool score LS means ± SE,"[1]; day 5, 50 mg/kg/day bid ip",2.2 ± 0.3
same,Disease Activity Index LS means ± SE,"[1]; day 5, 50 mg/kg/day bid ip",6.4 ± 0.5
same,Disease Activity Index Percent Reduction of Score vs control,"[1]; day 5, 50 mg/kg/day bid ip",7%
same,Blood in the Stool Percent Reduction of Score vs control,"[1]; day 5, 100 mg/kg/day bid ip",96%
same,Disease Activity Index LS means ± SE,"[1]; day 5, 100 mg/kg/day bid ip",1.7 ± 1.0
same,Disease Activity Index Percent Reduction of Score vs control,"[1]; day 5, 100 mg/kg/day bid ip",75%
same,Blood in the Stool score LS means ± SE,"[1]; day 5, 100 mg/kg/day bid ip, hydrochloride",0.1±0.5
same,affinity for the dopamine D2 subtype receptor (in words),[2],very low affinity
same,inhibition at 1000 µM,[3],45%
same,delay of mean onset of disease compared to the control group,[4]; p=0.02,5.8 days
same,reduction of severity of arthritis score compared to the control group,[4]; p=0.05,1.6
CCN(CC)CCNC(=O)c1ccc(NC(=O)C(C)C)c(Cl)c1 [4-Isobutyrylamino-3-chloro-N-[2-(diethylamino)ethyl]benzamide hydrochloride],inhibition at 1000 µM,[3],63%
CCC(=O)Nc1ccc(C(=O)NCCN(CC)CC)cc1Cl [4-Propanoylamino-3-chloro-N-[2-(diethylamino)ethyl]benzamide hydrochloride],inhibition at 1000 µM,[3],50%

# From US20250064761A1, “SUBSTITUTED BENZAMIDES AND THEIR USE IN THERAPY” (PHARMACYL AB, priority 2018, published 2025)
